Among the data in ChEMBL document CHEMBL4828725 (Eur J Med Chem, 2021) are IC50 and inhibition values, retold here.

Experiment [1] is described as follows: Inhibition of rice alpha-glucosidase using p-nitrophenyl glycoside as substrate assessed as release of p-nitrophenol measured by spectrometric assay. On the set-up: species or system Oryza sativa. The settings on record: for pIC50: read-out: IC50.
The nature of experiment [2]: Inhibition of rat intestinal maltase using maltose as substrate assessed as release of D-glucose measured by spectrometric assay.
The target in experiment [3] is T1, Sucrase-isomaltase, intestinal (Rattus norvegicus, UniProt P23739). As to the kind of experiment: Inhibition of rat intestinal sucrase using p-nitrophenyl glycoside as substrate assessed as release of p-nitrophenol measured by spectrometric assay. The settings on record: read-out: IC50.
T1 sequence (P23739 1-1013 limits assumed): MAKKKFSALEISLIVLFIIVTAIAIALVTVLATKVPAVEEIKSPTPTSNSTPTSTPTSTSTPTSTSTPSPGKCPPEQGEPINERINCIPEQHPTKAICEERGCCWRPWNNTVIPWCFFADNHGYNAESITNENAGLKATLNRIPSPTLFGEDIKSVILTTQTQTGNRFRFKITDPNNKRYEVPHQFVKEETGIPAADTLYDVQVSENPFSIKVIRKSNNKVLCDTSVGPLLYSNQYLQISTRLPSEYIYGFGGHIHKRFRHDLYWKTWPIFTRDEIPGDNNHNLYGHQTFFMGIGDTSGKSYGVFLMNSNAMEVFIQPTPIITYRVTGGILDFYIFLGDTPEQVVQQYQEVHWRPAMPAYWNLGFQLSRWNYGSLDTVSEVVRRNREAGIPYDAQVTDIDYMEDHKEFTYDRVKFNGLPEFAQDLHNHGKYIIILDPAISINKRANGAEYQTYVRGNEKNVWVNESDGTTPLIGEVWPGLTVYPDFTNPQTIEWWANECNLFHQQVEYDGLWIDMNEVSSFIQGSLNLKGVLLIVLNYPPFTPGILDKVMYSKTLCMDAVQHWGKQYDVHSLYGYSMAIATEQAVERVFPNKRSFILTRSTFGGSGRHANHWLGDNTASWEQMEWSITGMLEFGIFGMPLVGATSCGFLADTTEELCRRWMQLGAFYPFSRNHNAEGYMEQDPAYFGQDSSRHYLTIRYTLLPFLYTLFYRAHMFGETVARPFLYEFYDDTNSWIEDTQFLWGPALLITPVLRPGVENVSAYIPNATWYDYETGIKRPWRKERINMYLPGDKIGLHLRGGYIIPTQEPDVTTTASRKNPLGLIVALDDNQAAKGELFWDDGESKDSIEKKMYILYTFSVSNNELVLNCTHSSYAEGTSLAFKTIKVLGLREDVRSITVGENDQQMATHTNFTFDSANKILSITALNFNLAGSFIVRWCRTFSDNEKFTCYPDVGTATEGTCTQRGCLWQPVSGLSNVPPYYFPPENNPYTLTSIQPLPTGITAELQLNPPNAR
T1 sequence (P23739 1014-1841 limits assumed): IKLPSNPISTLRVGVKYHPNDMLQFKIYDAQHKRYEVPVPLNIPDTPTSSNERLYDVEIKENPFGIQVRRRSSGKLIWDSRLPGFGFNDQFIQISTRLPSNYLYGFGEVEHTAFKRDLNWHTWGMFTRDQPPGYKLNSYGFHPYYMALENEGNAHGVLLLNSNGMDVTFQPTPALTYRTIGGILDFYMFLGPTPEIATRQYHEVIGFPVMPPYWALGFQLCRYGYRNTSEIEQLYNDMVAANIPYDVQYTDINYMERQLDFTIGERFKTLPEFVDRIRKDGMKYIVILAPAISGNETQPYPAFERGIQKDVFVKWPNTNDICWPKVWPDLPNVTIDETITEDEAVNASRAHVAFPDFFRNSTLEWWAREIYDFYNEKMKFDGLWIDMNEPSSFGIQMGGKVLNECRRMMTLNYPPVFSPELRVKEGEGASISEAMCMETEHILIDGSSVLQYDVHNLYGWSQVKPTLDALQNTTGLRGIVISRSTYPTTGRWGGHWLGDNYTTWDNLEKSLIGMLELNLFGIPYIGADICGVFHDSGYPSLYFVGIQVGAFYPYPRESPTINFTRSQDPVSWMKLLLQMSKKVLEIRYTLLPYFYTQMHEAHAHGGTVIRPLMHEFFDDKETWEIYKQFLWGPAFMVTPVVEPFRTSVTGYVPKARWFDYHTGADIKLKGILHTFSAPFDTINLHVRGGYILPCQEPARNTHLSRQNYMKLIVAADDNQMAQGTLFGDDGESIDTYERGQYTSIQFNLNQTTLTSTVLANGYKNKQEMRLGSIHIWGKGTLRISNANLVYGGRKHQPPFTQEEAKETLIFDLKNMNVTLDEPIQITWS
Experiment [4] concerns the target T1, Sucrase-isomaltase, intestinal. Nature of the experiment: Inhibition of rat intestinal isomaltase using p-nitrophenyl glycoside as substrate assessed as release of p-nitrophenol measured by spectrometric assay. The settings on record: read-out: IC50.
Experiment [5] is described as follows: Inhibition of almond beta-glucosidase using p-nitrophenyl glycoside as substrate assessed as release of p-nitrophenol measured by spectrometric assay. On the set-up: species or system Prunus dulcis.
A further experiment relates to Prunus dulcis. As to the kind of experiment: Inhibition of almond beta-glucosidase using p-nitrophenyl glycoside as substrate assessed as release of p-nitrophenol at 1000 uM measured by spectrometric assay relative to control.
Experiment [6] in a line: Inhibition of bovine liver beta-glucosidase using p-nitrophenyl glycoside as substrate assessed as release of p-nitrophenol measured by spectrometric assay. On the set-up: species or system Bos taurus. The settings on record: for pIC50: read-out: IC50.
The next experiment has as its target Alpha-galactosidase (Coffea arabica, UniProt Q42656). As to the kind of experiment: Inhibition of coffee beans alpha-galactosidase using p-nitrophenyl glycoside as substrate assessed as release of p-nitrophenol measured by spectrometric assay. The settings on record: for pIC50: read-out: IC50.
A short description of experiment [7]: Inhibition of jack bean alpha-mannosidase using p-nitrophenyl glycoside as substrate assessed as release of p-nitrophenol measured by spectrometric assay. On the set-up: species or system Canavalia ensiformis.
Experiment [8] concerns the target T2, Alpha-mannosidase (Canavalia ensiformis) (UniProt C0HJB3).
T2 sequence (whole entry): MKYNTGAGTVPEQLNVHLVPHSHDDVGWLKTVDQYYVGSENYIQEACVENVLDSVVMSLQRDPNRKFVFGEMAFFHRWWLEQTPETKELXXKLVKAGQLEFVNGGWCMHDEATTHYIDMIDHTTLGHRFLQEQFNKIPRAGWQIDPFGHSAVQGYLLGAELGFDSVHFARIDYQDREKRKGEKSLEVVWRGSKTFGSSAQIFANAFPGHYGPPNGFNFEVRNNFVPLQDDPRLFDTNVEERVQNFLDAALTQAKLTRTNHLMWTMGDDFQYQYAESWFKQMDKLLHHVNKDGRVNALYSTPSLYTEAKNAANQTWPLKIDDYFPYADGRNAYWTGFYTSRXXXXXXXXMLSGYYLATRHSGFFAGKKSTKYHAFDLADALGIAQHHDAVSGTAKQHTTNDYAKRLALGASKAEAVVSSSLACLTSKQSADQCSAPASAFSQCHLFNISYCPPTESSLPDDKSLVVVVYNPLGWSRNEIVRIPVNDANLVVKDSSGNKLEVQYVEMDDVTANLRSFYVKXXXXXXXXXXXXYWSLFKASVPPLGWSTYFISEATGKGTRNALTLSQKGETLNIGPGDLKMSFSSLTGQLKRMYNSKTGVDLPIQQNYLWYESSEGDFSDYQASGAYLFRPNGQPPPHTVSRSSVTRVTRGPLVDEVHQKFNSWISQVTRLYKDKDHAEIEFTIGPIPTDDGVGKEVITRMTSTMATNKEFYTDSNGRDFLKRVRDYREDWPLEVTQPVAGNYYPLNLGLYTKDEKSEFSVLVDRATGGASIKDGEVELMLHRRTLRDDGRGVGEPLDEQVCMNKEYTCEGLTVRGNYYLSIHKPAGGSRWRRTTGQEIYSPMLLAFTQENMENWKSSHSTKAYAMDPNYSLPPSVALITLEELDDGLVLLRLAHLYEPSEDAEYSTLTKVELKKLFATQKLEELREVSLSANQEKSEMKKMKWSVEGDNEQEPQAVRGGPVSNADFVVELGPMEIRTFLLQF
As to the kind of experiment: Inhibition of jack bean alpha-mannosidase using p-nitrophenyl glycoside as substrate assessed as release of p-nitrophenol at 1000 uM measured by spectrometric assay relative to control.

Experiment [9] is described as follows: Inhibition of snail beta-mannosidase using p-nitrophenyl glycoside as substrate assessed as release of p-nitrophenol measured by spectrometric assay. On the set-up: species or system Helix pomatia.
Another experiment concerns Helix pomatia. As to the kind of experiment: Inhibition of snail beta-mannosidase using p-nitrophenyl glycoside as substrate assessed as release of p-nitrophenol at 1000 uM measured by spectrometric assay relative to control.
Experiment [10] concerns the target T3, Tissue alpha-L-fucosidase (Bos taurus, UniProt Q2KIM0).
T3 sequence (Q2KIM0 whole entry): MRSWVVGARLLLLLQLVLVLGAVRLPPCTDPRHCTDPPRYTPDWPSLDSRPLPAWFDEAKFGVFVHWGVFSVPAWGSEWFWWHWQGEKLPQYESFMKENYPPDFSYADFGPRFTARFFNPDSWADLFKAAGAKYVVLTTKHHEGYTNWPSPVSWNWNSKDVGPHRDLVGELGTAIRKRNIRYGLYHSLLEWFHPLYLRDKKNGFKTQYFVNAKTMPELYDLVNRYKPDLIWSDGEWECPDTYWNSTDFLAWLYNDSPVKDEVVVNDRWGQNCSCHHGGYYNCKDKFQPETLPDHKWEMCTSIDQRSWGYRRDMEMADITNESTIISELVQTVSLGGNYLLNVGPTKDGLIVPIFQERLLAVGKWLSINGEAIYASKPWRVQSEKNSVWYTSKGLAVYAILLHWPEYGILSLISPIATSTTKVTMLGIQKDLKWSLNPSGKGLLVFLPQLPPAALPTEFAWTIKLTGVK
Nature of the experiment: Inhibition of bovine kidney alpha-L-fucosidase using p-nitrophenyl glycoside as substrate assessed as release of p-nitrophenol measured by spectrometric assay.

The target in experiment [11] is T4, Tissue alpha-L-fucosidase (Bos taurus) (UniProt Q2KIM0).
T4 sequence (whole entry): T3 sequence (Q2KIM0 whole entry)
As to the kind of experiment: Inhibition of bovine kidney alpha-L-fucosidase using p-nitrophenyl glycoside as substrate assessed as release of p-nitrophenol at 1000 uM measured by spectrometric assay relative to control. Format: tissue-based.

Experiment [12] is described as follows: Inhibition of porcine kidney alpha-trehalase using p-nitrophenyl glycoside as substrate assessed as release of p-nitrophenol measured by spectrometric assay. On the set-up: species or system Sus scrofa.
The species named for a further experiment is Sus scrofa. Nature of the experiment: Inhibition of porcine kidney alpha-trehalase using p-nitrophenyl glycoside as substrate assessed as release of p-nitrophenol at 1000 uM measured by spectrometric assay relative to control.
The nature of experiment [13]: Inhibition of Aspergillus niger amyloglucosidase using p-nitrophenyl glycoside as substrate assessed as release of p-nitrophenol measured by spectrometric assay.
The next experiment deals with Aspergillus niger. As to the kind of experiment: Inhibition of Aspergillus niger amyloglucosidase using p-nitrophenyl glycoside as substrate assessed as release of p-nitrophenol at 1000 uM measured by spectrometric assay relative to control.
Experiment [14] can be described thus: Inhibition of Penicillium decumbens alpha-L-rhamnosidase using p-nitrophenyl glycoside as substrate assessed as release of p-nitrophenol measured by spectrometric assay.
In a further experiment the test system is Penicillium decumbens. Nature of the experiment: Inhibition of Penicillium decumbens alpha-L-rhamnosidase using p-nitrophenyl glycoside as substrate assessed as release of p-nitrophenol at 1000 uM measured by spectrometric assay relative to control.
A further experiment has as its target Beta-glucuronidase (Escherichia coli (strain K12), UniProt P05804). As to the kind of experiment: Inhibition of Escherichia coli beta-glucuronidase using p-nitrophenyl glycoside as substrate assessed as release of p-nitrophenol measured by spectrometric assay. The settings on record: for pIC50: read-out: IC50.
Experiment [15] deals with Beta-glucuronidase (Escherichia coli (strain K12)) (UniProt P05804). As to the kind of experiment: Inhibition of Escherichia coli beta-glucuronidase using p-nitrophenyl glycoside as substrate assessed as release of p-nitrophenol at 1000 uM measured by spectrometric assay relative to control.
Beta-glucuronidase (Escherichia coli (strain K12)), sequence (P05804 whole entry, looked up): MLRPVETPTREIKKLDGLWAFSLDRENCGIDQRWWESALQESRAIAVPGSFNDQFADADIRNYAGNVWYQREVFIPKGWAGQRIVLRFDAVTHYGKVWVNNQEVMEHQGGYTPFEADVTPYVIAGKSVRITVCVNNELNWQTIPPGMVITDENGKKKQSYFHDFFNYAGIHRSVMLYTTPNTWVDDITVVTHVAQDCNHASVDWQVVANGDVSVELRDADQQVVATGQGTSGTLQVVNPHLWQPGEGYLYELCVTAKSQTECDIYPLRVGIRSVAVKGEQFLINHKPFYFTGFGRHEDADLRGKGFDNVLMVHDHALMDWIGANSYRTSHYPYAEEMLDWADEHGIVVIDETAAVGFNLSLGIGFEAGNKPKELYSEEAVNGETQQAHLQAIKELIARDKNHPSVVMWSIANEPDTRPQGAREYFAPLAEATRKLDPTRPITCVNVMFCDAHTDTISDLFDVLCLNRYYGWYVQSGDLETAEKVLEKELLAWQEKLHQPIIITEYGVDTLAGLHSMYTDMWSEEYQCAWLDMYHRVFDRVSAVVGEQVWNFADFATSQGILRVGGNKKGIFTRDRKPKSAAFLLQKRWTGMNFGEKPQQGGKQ
Experiment [16] is described as follows: Inhibition of bovine liver beta-galactosidase using p-nitrophenyl glycoside as substrate assessed as release of p-nitrophenol measured by spectrometric assay. Format: tissue-based, Bos taurus. The settings on record: for pIC50: read-out: IC50.
The species named for a further experiment is Bos taurus. Nature of the experiment: Inhibition of bovine liver beta-glucosidase using p-nitrophenyl glycoside as substrate assessed as release of p-nitrophenol at 1000 uM measured by spectrometric assay relative to control. Format: tissue-based.

By pIC50 is commonly meant −log10 of the IC50, conventionally taken in molar units. Broadly, the inhibition is how much of the control response was suppressed.

pIC50: −log10 of the molar value.

Alpha-galactosidase, sequence (Q42656 whole entry): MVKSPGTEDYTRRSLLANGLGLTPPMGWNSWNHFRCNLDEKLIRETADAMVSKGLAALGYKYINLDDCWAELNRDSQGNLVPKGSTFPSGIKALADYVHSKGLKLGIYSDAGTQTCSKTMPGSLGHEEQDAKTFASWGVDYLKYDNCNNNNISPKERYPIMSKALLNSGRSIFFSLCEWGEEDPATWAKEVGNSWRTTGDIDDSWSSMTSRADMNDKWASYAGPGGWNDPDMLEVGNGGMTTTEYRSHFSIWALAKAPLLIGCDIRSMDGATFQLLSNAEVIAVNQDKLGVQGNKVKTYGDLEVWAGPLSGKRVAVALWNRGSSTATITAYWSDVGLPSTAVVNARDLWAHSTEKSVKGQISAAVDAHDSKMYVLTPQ
Beta-glucuronidase, sequence (P05804 whole entry): as the sequence (P05804 whole entry, looked up) above

In the case of `CCCCCCCCCC[C@]1(CO)NC[C@H](O)[C@@H](O)[C@@H]1O.Cl`, the negative-log IC50 (pIC50) in experiment [1] is 7.48; in experiment [2], 6.92; in [3], 5.77; in experiment [4], 4.89; in experiment [6] it was 4.68; at Alpha-galactosidase, 4.74. In addition, the IC50 result in [5], in [7], in [9], in experiment [10], in experiment [12] and in experiment [13] was “Not Active” in each case. For the same molecule, the IC50 result (in experiment [14]; on Beta-glucuronidase) was “Not Active” throughout. For the same molecule, the inhibition was 10% in the experiment with Prunus dulcis; 4.3% in [8]; 0% in the experiment with Helix pomatia; 0.9% in experiment [11]; 5.7% in the experiment listed under Sus scrofa; 9.2% in the experiment with Aspergillus niger. Besides, the inhibition in the experiment with Penicillium decumbens stood at 0%; in experiment [15] it was 24.4%.

In the case of `CCCC[C@]1(CO)NC[C@H](O)[C@@H](O)[C@@H]1O.Cl`, the pIC50 is 6.85 in experiment [1]; 6.77 in [2]; 6.25 in experiment [3]; 5.59 in [4]; 3.50 in experiment [6]; 4.24 at Alpha-galactosidase. Further, the pIC50 in experiment [16] is 3.90; at Beta-glucuronidase, 3.17. For the same molecule, the IC50 entry in experiment [5], in experiment [7], in experiment [9], in experiment [10], in experiment [12] and in experiment [13] was “Not Active” each time. In experiment [14], the IC50 entry is reported as “Not Active”. Moreover, the inhibition came to 36.6% with Prunus dulcis; 6.6% in [8]; 16.5% with Helix pomatia; 10.3% in experiment [11]; 33.5% in the experiment listed under Sus scrofa; 17.1% in the experiment with Aspergillus niger. The inhibition in the experiment with Penicillium decumbens came out at 16.3%.

With `OC[C@@H]1NC[C@H](O)[C@@H](O)[C@@H]1O`, the IC50 result (in experiment [1]; in [5]; in experiment [6]; at Alpha-galactosidase; in [16]; in experiment [7]) was “Not Active” throughout. Also, the IC50 result (in experiment [9]; in [10]; in experiment [12]; in [13]; in [14]; at Beta-glucuronidase) was “Not Active” throughout. Further, the pIC50 in [2] is 5.08.

`CCCCCCCCC[C@]1(CO)NC[C@H](O)[C@@H](O)[C@@H]1O.Cl`: the pIC50 in experiment [1] was 7.55; in experiment [2], 6.92; in [3], 6.35; in [4], 5.77; in [6] it was 3.68; on Alpha-galactosidase, 4.82. For the same molecule, the pIC50 in [16] was 4.17; in experiment [12] (read-out: IC50), 3.31; on Beta-glucuronidase, 3.80. The IC50 result in [5], in experiment [7], in [9], in [10], in experiment [13] and in experiment [14] was “Not Active” each time. For the same molecule, the inhibition was 41.7% in the experiment with Prunus dulcis; 10.7% in experiment [8]; 2.5% in the experiment on Helix pomatia; 25.3% in [11]; 14.1% with Aspergillus niger; 9.1% with Penicillium decumbens.

`CCCCCCCCCCC[C@]1(CO)NC[C@H](O)[C@@H](O)[C@@H]1O.Cl`: the pIC50 in [1] is 7.70; in experiment [2], 7.49; in experiment [3], 6.72; in [4], 5.96; at Alpha-galactosidase, 5.44; in experiment [16], 4.15. Moreover, the IC50 result in experiment [5], in [6], in experiment [7], in experiment [9], in experiment [10] and in experiment [12] was “Not Active” throughout. Also, the IC50 result (in [13]; in [14]; at Beta-glucuronidase) was “Not Active” each time. For the same molecule, the inhibition stood at 10% in the experiment with Prunus dulcis; 3.7% in the experiment listed under Bos taurus; 2.1% in [8]; 0% in the experiment on Helix pomatia; 6.6% in [11]; 20.3% in the experiment filed under Sus scrofa. Moreover, the inhibition in the experiment with Aspergillus niger came to 0%; with Penicillium decumbens it was 4.5%; in [15], 25.2%.
